Some test systems named below: OVCAR-3; IGROV-1; HT-29; TK-10; Malme-3M; 786-0; SNB-19; HCC 2998; RXF 393; EKVX; SF-295; HCT-15; OVCAR-5; UO-31; HCT-116; SR; SN12C; NCI-H460; CCRF-CEM.
Assay in all cases: growth of human tumour cells (NCI), 48 h

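Five concentrations, 48 hours, 96-well plates. GI50 marks 50% less growth.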 Active and inactive are the calls of the source. No stated cut-off is given here; in the data, active = GI50 up to about 1.1 µM and inactive = higher.

Turning to `COc1cc2c(cc1OCCCOc1cc3c(cc1OC)C(=O)N1CCC[C@H]1C(=O)N3)N=C[C@@H]1CCCN1C2=O`, the GI50 in the assay on OVCAR-3 is 19.5 µM (inactive); in the assay with IGROV-1, 14.6 µM (inactive); in the assay with HT-29, 16.9 µM (inactive); with TK-10, 25.8 µM (inactive); in the assay with Malme-3M, 10.9 µM (inactive); with 786-0, 29 µM (inactive). Also, the GI50 in the assay on SNB-19 was 27.3 µM (inactive); in the assay with HCC 2998 it was 14.3 µM (inactive); with RXF 393, 13.3 µM (inactive); in the assay on EKVX, 17 µM (inactive); in the assay with SF-295, 15.8 µM (inactive); in the assay on HCT-15, 71.3 µM. The GI50 in the assay with OVCAR-5 is 25.1 µM (inactive); with UO-31 it was 18.5 µM (inactive); with HCT-116 it was 26.4 µM (inactive); in the assay on SR it was 1.54 µM (inactive); in the assay with SN12C, 15.7 µM (inactive); in the assay on NCI-H460, 19.9 µM (inactive).
For `NCCN1CC2CCC(CC2)C1`, the GI50 in the assay on OVCAR-3, in the assay with IGROV-1, with HT-29, in the assay with TK-10, with Malme-3M and in the assay on 786-0 was > 10 µM (inactive) in each case. The GI50 in the assay with SNB-19 was > 10 µM (inactive); in the assay on HCC 2998 it was > 10 µM (inactive); in the assay with RXF 393 it was > 10 µM (inactive); in the assay on EKVX it was > 10 µM (inactive); with SF-295, > 10 µM (inactive); in the assay on HCT-15 it was above 10 µM. Besides, the GI50 in the assay with UO-31, in the assay on HCT-116, in the assay with SR, with SN12C, in the assay on CCRF-CEM and in the assay with NCI-H460 was > 10 µM (inactive) throughout.
For `FC(F)(F)c1ccccc1C1SCc2nc3ccccc3n21` (stereo not given), the GI50 is 40.1 µM (inactive) with OVCAR-3; 60.1 µM (inactive) in the assay with IGROV-1; 33.8 µM (inactive) in the assay with HT-29; > 100 µM (inactive) with TK-10; 25.4 µM (inactive) in the assay on Malme-3M; > 100 µM (inactive) in the assay on 786-0. Also, the GI50 in the assay on SNB-19 was > 100 µM (inactive); in the assay on HCC 2998 it was > 100 µM (inactive); in the assay with RXF 393, 91.8 µM (inactive); in the assay on EKVX, 41.1 µM (inactive); with SF-295, 57.1 µM (inactive); with OVCAR-5, 28.8 µM (inactive). For the same compound, the GI50 in the assay with UO-31 is 49.7 µM (inactive); in the assay with HCT-116, 39.1 µM (inactive); with SR, 27.9 µM (inactive); with SN12C, 31.6 µM (inactive); in the assay on CCRF-CEM it was 27.4 µM (inactive).
As to `O=C(O)CS` [THIOGLYCOLIC ACID], the GI50 with IGROV-1, in the assay with HT-29, with TK-10, with Malme-3M, in the assay on 786-0 and in the assay on SNB-19 was > 100 µM (inactive) in each case. Further, the GI50 is > 100 µM (inactive) with HCC 2998; > 100 µM (inactive) with RXF 393; > 100 µM (inactive) in the assay with EKVX; > 100 µM (inactive) in the assay on SF-295; above 100 µM with HCT-15; > 100 µM (inactive) in the assay with OVCAR-5. Further, the GI50 with UO-31, in the assay on HCT-116, in the assay with SR, with SN12C, in the assay on CCRF-CEM and with NCI-H460 was > 100 µM (inactive) in each case.
Turning to `CN1CCN(CCSC2Cc3cc(Cl)ccc3Sc3ccccc32)CC1` (stereo not given), the GI50 was 8.2 µM (inactive) with OVCAR-3; 10.3 µM (inactive) in the assay on IGROV-1; 1.63 µM (inactive) in the assay with HT-29; 5.13 µM (inactive) with TK-10; 2.45 µM (inactive) in the assay on Malme-3M; 4.55 µM (inactive) with 786-0. The GI50 was 13.9 µM (inactive) in the assay with SNB-19; 4.18 µM (inactive) in the assay on HCC 2998; 4.19 µM (inactive) in the assay with RXF 393; 15.1 µM (inactive) in the assay with EKVX; 4.18 µM (inactive) in the assay on SF-295; 4.59 µM with HCT-15. For the same compound, the GI50 in the assay with OVCAR-5 was 5.37 µM (inactive); in the assay on UO-31, 8.11 µM (inactive); in the assay on HCT-116, 5.69 µM (inactive); with SR, 5.07 µM (inactive); in the assay with SN12C it was 9.12 µM (inactive); in the assay on NCI-H460, 4.95 µM (inactive).
Take `COc1cc2ccc(CC(=O)O)cc2cc1OC`: the GI50 with OVCAR-3, in the assay on IGROV-1, with HT-29, in the assay on TK-10, with Malme-3M and in the assay on 786-0 was > 100 µM (inactive) throughout. The GI50 in the assay with SNB-19 was > 100 µM (inactive); in the assay with HCC 2998, > 100 µM (inactive); in the assay on RXF 393, > 100 µM (inactive); in the assay with EKVX, > 100 µM (inactive); in the assay on HCT-15, above 100 µM; with UO-31 it was > 100 µM (inactive). Further, the GI50 in the assay on HCT-116, with SR, with SN12C and in the assay on CCRF-CEM was > 100 µM (inactive) in each case.
`N#Cc1ccc2[nH]c3c(c2c1)CC(=O)Nc1ccccc1-3` [PAULLONE 2]: the GI50 in the assay on OVCAR-3 was > 100 µM (inactive); in the assay on IGROV-1, 99.8 µM (inactive); with HT-29 it was > 100 µM (inactive); in the assay with TK-10 it was > 100 µM (inactive); in the assay with 786-0, > 100 µM (inactive); in the assay on SNB-19, > 100 µM (inactive). Moreover, the GI50 was > 100 µM (inactive) in the assay on HCC 2998; > 100 µM (inactive) in the assay with RXF 393; > 100 µM (inactive) in the assay on EKVX; > 100 µM (inactive) with SF-295; above 100 µM in the assay with HCT-15; > 100 µM (inactive) with OVCAR-5. In addition, the GI50 in the assay with UO-31 was > 100 µM (inactive); in the assay on HCT-116, 21.5 µM (inactive); in the assay with SR, 2.9 µM (inactive); with CCRF-CEM it was > 100 µM (inactive); in the assay on NCI-H460, > 100 µM (inactive).
Consider `O=C(C[n+]1ccccc1)N/N=C(\Cc1nc2ccc([N+](=O)[O-])cc2nc1O)C(=O)Nc1cc(Cl)c(Cl)cc1Cl`, for which the GI50 was 76 µM (inactive) in the assay on OVCAR-3; > 100 µM (inactive) in the assay on IGROV-1; > 100 µM (inactive) in the assay on HT-29; > 100 µM (inactive) with Malme-3M; > 100 µM (inactive) in the assay with 786-0; > 100 µM (inactive) in the assay with SNB-19. The GI50 in the assay with HCC 2998 was 59 µM (inactive); in the assay on RXF 393 it was > 100 µM (inactive); in the assay with EKVX, > 100 µM (inactive); in the assay with SF-295 it was > 100 µM (inactive); in the assay on HCT-15 it was above 100 µM; with OVCAR-5, > 100 µM (inactive). Further, the GI50 was 50.4 µM (inactive) with UO-31; > 100 µM (inactive) in the assay on HCT-116; > 100 µM (inactive) in the assay with SR; > 100 µM (inactive) in the assay on SN12C; > 100 µM (inactive) with CCRF-CEM; 87.9 µM (inactive) in the assay on NCI-H460.

The record behind these values is ChEMBL document CHEMBL1201862, “PubChem BioAssay data set” (2004).
